# Source: PMC8521653 (ACS Medicinal Chemistry Letters, 2021)
# Marks after values point to notes of the source that are not given here.
# What was measured:
# [1] = test system: PREP-catalyzed α-synuclein dimerization in N2A cells; assay: αSyn dimerization, protein fragment complementation assay (PCA) in N2A cells; format: cell-based; details: 10 μM, PCA, Figure S1A, % decrease
# Protocol: The effect of the compounds on autophagy was determined by using GFP-LC3B-RFP expressing HEK-293 cells.[15],[34] The effect on αSyn dimerization was evaluated with a protein fragment complementation assay (PCA) by using N2A cells.[10],[15],[16] The increase in autophagic flux was measured as a decrease in GFP signal due to increased degradation of GFP-LC3B, and the decrease in αSyn dimerization was measured as a decrease in luminescence, both compared with DMSO (Table 1). […] Rapamycin and starvation are known to induce autophagy, lowering the fluorescence to 65–70% in our assays, and were therefore used as reference compounds for this. Test compounds were assayed at 10 μM concentration with 0.1% DMSO. A graphical representation of the mean values (± SEM) can be seen in the Supporting Information (Figure S1).
# Measuring biological activity […]
# α-Synuclein Dimerization. αSyn dimerization was assessed by using PCA, which was carried out as described previously in Kilpeläinen et al.1 In short, N2A cells were seeded on poly-L-lysine-coated 96-well plates (Isoplate™ white wall, PerkinElmer Life Sciences) at the density of 13 000 cells/well. 24 h post-plating, reporter plasmids were transfected with 100 ng of total plasmid DNA per well. N2A cells were transfected with 25 ng of both αSyn-Gluc1 and αSyn-Gluc2 and 50 ng mock-plasmid or non-tagged human PREP expression plasmid 50 ng/well. Lipofectamine 3000 (Thermo Fischer Scientific) was used as the transfection reagent. 100 µL normal growth medium was added to all wells at 24 h post-transfection. 48 hours post-transfection medium was changed to phenol red free DMEM without serum containing the tested compounds at 10 µM concentration, with 0,1% DMSO as vehicle control. Proteasome inhibitors lactacystin (AG Scientific) at 10 µM and MG-132 (Enzo Life Sciences) at 10 µM served as a positive control. The PCA signal was assessed by injecting 25 µL of native coelenterazine (Nanolight Technology) in phenol red free DMEM per well (final concentration 6 µM). The emitted luminescence was read using Varioskan LUX multimode microplate reader (Thermo Scientific). For each experimental condition, 4 replicate wells were used in each experiment, and at least 3 separate experiments for each treatment except for 15c which had 2 separate experiments. […]
# [2] = test system: GFP-LC3B-RFP expressing HEK-293 cells; assay: Autophagic flux, GFP signal in GFP-LC3B-RFP expressing HEK-293 cells; format: cell-based; details: for effect on autophagy (in words) / activity at 10 µM: 10 μM; for activity at 10 µM: Homo sapiens, HEK293, GFP signal percentage of DMSO control with SEM, HEK-293 cells, read-out: autophagy at 10 μM (%)
# [3] = test system: PREP-catalyzed α-synuclein dimerization in N2A cells; details: luminescence signal percentage of DMSO control with SEM, ref Kilpeläinen et al.[16]; cited from earlier work
# [4] = test system: GFP-LC3B-RFP expressing HEK-293 cells; parameters: method as in Kilpeläinen et al.[15]; details: GFP signal percentage of DMSO control with SEM, ref Kilpeläinen et al.[15]; cited from earlier work
# [5] = target: T1, purified recombinant porcine PREP (Sus scrofa, UniProt P23687); parameters: method as in Kilpeläinen et al.[16]; details: 95% CI in brackets, ref Kilpeläinen et al.[16]; cited from earlier work
# T1 construct: made in house; host or cells: E. coli
# T1 sequence (P23687 whole entry): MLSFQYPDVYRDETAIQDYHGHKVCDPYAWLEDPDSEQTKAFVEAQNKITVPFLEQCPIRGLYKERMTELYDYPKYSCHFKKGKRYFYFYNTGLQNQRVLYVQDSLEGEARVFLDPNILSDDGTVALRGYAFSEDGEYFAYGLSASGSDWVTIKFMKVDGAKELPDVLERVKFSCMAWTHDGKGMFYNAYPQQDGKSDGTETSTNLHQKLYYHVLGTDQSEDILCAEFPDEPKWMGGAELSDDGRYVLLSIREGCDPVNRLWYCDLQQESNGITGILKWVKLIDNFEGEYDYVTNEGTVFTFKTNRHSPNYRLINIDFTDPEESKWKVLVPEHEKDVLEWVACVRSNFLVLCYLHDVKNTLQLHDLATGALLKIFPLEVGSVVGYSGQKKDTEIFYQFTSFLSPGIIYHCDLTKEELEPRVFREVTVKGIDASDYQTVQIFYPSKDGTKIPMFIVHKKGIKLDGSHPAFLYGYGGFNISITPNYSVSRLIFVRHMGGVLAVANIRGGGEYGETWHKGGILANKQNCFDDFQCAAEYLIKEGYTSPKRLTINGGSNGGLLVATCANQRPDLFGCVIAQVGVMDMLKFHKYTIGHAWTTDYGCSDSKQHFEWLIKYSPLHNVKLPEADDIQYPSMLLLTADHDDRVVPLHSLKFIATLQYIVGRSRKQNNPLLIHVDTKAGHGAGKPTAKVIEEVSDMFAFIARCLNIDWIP
Structure (SMILES),decrease of aSyn dimerization compared to DMSO control [1] [%],effect on autophagy (in words) [2],activity at 10 µM ([2]; 24 h) [%],α-synuclein dimerization at 10 μM (%) [3],autophagy at 10 μM (%) [4],IC50 [5] [nM],"decrease in autophagic flux assay GFP signal compared to DMSO control ([2]; 10 µM, 24 h, Figure S1B, % decrease) [%]"
O=C(CCCc1ccccc1)N1CCC[C@H]1C(=O)N1CCC[C@H]1c1nnn[nH]1 [Compound 1a],23,no significant activity,92,82 ^e (6.8) %,,,
N#C[C@@H]1CCCN1C(=O)[C@@H]1CCCN1C(=O)CCCc1ccccc1 [KYP-2047],,,,,89 ^d (3.4) %,,
O=C(CCCc1ccccc1)NCC(=O)N1CCC[C@H]1c1nnn[nH]1 [Compound 1e],,no significant activity,90,77 ^e (6.2) %,,210000,
C[C@H](NC(=O)CCCc1ccccc1)C(=O)N1CCC[C@H]1c1nnn[nH]1 [Compound 1b],25,effective at inducing autophagy,71,75 ^e (4.9) %,,,29
